Results published in ChEMBL document CHEMBL3751776, “Expanding the structural diversity of diarylureas as multi-target tyrosine kinase inhibitors” (Bioorg Med Chem, 2016).

Columns and labels:
[1] = target: Vascular endothelial growth factor receptor 2 (Homo sapiens, UniProt P35968); test: Inhibition of KDR (unknown origin) incubated for 1 hr assessed as luminescence changes using ATP by ADP-Glo Kinase assay
[2] = target: Fibroblast growth factor receptor 1 (Homo sapiens, UniProt P11362); test: Inhibition of FGFR1 (unknown origin) incubated for 1 hr assessed as luminescence changes using ATP by ADP-Glo Kinase assay
Fibroblast growth factor receptor 1, sequence (P11362 whole entry): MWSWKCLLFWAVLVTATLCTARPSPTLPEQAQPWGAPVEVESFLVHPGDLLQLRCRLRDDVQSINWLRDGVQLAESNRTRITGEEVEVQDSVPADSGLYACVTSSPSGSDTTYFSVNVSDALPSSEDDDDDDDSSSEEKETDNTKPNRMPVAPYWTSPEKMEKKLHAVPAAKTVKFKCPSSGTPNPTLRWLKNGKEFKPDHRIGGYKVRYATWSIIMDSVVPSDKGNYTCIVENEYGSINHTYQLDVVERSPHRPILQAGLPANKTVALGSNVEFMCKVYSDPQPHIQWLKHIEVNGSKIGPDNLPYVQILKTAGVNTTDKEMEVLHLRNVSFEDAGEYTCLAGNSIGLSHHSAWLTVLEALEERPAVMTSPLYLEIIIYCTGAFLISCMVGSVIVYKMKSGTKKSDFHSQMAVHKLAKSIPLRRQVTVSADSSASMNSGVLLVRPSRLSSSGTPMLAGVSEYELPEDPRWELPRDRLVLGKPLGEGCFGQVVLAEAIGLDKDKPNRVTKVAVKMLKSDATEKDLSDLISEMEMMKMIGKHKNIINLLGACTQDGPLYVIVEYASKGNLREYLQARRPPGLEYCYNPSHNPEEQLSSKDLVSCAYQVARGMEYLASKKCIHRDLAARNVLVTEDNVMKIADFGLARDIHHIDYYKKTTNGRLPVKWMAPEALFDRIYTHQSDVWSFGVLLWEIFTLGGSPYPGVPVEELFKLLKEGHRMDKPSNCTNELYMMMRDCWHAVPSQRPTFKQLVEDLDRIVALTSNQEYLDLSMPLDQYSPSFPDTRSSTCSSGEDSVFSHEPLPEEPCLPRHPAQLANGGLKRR

A549 = test: Antiproliferative activity against human A549 cells assessed as growth inhibition after 48 hrs by MTT assay; format: functional, cell-based; conditions: A549, 48 h
[3] = Antiproliferative activity against human SMMC7721 cells assessed as growth inhibition after 48 hrs by MTT assay; format: functional, cell-based; conditions: SMMC-7721, 48 h
[4] = target: Epidermal growth factor receptor (Homo sapiens, UniProt P00533); test: Inhibition of EGFR (unknown origin) incubated for 1 hr assessed as luminescence changes using ATP by ADP-Glo Kinase assay
Epidermal growth factor receptor, sequence (P00533 whole entry): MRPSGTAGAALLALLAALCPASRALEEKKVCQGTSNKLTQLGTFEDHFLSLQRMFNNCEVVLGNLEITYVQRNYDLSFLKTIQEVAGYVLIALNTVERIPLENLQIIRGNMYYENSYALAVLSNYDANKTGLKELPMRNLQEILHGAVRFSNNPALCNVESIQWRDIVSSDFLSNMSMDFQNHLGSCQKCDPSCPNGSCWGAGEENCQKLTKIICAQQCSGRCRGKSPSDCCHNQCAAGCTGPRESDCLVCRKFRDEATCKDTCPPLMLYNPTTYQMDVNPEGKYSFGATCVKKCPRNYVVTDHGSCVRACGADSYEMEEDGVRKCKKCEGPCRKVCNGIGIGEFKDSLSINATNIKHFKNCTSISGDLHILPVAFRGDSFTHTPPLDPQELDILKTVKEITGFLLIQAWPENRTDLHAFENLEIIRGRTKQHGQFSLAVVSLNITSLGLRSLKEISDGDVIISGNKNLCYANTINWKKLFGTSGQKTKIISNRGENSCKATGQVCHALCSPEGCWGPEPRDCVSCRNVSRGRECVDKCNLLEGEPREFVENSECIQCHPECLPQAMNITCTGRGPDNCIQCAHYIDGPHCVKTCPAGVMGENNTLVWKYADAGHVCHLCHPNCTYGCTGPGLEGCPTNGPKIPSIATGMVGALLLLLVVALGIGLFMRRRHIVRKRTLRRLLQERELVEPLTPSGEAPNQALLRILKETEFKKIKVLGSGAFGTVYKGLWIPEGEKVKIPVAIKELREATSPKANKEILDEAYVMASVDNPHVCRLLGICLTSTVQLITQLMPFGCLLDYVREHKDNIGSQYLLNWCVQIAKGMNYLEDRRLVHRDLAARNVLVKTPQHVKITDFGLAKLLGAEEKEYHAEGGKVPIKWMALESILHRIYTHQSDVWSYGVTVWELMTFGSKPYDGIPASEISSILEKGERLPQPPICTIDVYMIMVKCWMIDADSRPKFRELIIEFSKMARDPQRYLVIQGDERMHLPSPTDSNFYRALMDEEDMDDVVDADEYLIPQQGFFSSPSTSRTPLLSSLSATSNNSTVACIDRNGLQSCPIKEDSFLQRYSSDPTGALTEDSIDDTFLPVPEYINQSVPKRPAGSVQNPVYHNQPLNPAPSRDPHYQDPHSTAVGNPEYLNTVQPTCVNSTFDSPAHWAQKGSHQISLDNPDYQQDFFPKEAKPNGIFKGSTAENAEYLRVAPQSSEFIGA

Vascular endothelial growth factor receptor 2, sequence (P35968 whole entry): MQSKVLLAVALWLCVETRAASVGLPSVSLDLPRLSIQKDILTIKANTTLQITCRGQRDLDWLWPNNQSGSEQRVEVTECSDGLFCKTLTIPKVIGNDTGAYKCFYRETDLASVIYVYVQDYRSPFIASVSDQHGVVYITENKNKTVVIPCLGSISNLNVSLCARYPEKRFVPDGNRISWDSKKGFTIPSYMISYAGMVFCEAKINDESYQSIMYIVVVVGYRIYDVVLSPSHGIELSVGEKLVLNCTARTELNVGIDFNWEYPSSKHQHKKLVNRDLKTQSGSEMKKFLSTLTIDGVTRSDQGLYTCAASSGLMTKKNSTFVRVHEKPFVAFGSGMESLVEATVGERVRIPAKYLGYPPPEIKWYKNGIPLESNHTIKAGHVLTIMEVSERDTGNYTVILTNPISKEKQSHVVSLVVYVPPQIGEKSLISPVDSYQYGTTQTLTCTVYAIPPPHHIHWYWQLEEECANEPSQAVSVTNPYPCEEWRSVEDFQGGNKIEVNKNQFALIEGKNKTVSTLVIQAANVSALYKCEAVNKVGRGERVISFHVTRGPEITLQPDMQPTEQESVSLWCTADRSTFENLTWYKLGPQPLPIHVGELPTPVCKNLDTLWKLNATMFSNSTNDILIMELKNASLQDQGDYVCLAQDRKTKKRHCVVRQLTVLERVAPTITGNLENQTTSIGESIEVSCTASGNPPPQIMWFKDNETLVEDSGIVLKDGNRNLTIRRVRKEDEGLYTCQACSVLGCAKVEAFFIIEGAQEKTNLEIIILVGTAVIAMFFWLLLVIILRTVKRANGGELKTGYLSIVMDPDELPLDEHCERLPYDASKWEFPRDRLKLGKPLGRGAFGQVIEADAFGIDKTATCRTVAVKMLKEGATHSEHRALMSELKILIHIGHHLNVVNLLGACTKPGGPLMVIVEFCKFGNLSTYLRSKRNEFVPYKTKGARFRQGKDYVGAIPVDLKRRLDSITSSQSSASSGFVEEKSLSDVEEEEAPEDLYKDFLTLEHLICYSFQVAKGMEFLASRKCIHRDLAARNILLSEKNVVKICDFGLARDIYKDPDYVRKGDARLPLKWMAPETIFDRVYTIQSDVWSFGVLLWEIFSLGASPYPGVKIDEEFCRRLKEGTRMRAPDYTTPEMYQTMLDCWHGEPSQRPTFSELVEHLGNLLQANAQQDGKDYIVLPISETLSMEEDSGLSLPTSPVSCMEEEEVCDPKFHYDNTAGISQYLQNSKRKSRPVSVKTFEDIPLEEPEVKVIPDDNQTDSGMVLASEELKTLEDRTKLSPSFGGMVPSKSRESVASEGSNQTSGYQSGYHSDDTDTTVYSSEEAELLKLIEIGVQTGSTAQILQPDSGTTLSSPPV

IC50 [1] | IC50 [2] | IC50 (A549) | IC50 [4] | SMILES | IC50 [3]
355 nM | 371 nM | 79300 nM | 94.8 nM | Cn1cnc(-c2ccc(OC(F)(F)F)c(NC(=O)Nc3ccncc3)c2)c1 | > 300000 nM
> 500 nM | > 500 nM | 177000 nM | > 500 nM | COc1ccc(-c2ccc(OC(F)(F)F)c(NC(=O)Nc3ccccn3)c2)cn1 | 90400 nM
128 nM | 104 nM | 39800 nM | 97.2 nM | O=C(Nc1ccncc1)Nc1cc(-c2cccnc2)ccc1OC(F)(F)F | 42800 nM
21.6 nM | 28.2 nM | 2420 nM | 14.8 nM | O=C(Nc1ccncc1)Nc1cc(-c2cncnc2)cc(C(F)(F)F)c1 | 3730 nM
> 500 nM | > 500 nM | – | 455 nM | COc1ccc(-c2cc(NC(=O)Nc3ccncc3)cc(OC)c2OC)cn1 | –
364 nM | > 500 nM | 276000 nM | > 500 nM | COc1ccc(-c2cc(NC(=O)Nc3ccncc3)cc(C(F)(F)F)c2)cn1 | > 300000 nM
213 nM | 272 nM | – | 131 nM | COc1cc(NC(=O)Nc2ccncc2)cc(-c2cccnc2)c1OC | 73600 nM
22.2 nM | 32.6 nM | 3750 nM | 18 nM | O=C(Nc1ccncc1)Nc1cc(-c2cncnc2)ccc1OC(F)(F)F | 3990 nM
223 nM | 261 nM | 39400 nM | 166 nM | Cn1cnc(-c2cc(NC(=O)Nc3ccncc3)cc(C(F)(F)F)c2)c1 | 235000 nM
> 500 nM | > 500 nM | – | 477 nM | COc1ccc(-c2cc(NC(=O)Nc3nccs3)cc(C(F)(F)F)c2)cn1 | 36200 nM
93 nM | 138 nM | > 300000 nM | 189 nM | O=C(Nc1ccncc1)Nc1cc(-c2cccnc2)cc(C(F)(F)F)c1 | –
– | – | 2020 nM | – | CNC(=O)c1cc(Oc2ccc(NC(=O)Nc3ccc(Cl)c(C(F)(F)F)c3)cc2)ccn1 [SORAFENIB] | 1580 nM
> 500 nM | 99.8 nM | > 300000 nM | 103 nM | COc1ccc(-c2ccc(OC(F)(F)F)c(NC(=O)Nc3ccncc3)c2)cn1 | –

The next lines start with the compound.

SMILES | IC50 [1] | IC50 [2] | IC50 (A549) | IC50 [4] | IC50 [3]
O=C(Nc1ccccn1)Nc1cc(-c2cccnc2)ccc1OC(F)(F)F | 86.7 nM | 130 nM | 19000 nM | – | 35600 nM
O=C(Nc1cc(-c2cncnc2)cc(C(F)(F)F)c1)Nc1nccs1 | 86.7 nM | > 500 nM | 18300 nM | 71.8 nM | 29700 nM
Cn1cnc(-c2cc(NC(=O)Nc3nccs3)cc(C(F)(F)F)c2)c1 | 285 nM | > 500 nM | 163000 nM | 311 nM | –
O=C(Nc1cc(-c2cccnc2)cc(C(F)(F)F)c1)Nc1nccs1 | 57.4 nM | 99.2 nM | 92100 nM | 78.2 nM | 68200 nM
COc1ccc(-c2ccc(OC(F)(F)F)c(NC(=O)Nc3nccs3)c2)cn1 | 390 nM | > 500 nM | 35000 nM | 495 nM | 44100 nM
COc1cc(NC(=O)Nc2nccs2)cc(-c2cccnc2)c1OC | 291 nM | 334 nM | 106000 nM | 317 nM | –
COc1cc(NC(=O)Nc2nccs2)cc(-c2cn(C)cn2)c1OC | 420 nM | > 500 nM | – | 362 nM | –
O=C(Nc1nccs1)Nc1cc(-c2cccnc2)ccc1OC(F)(F)F | 107 nM | 96.1 nM | – | 121 nM | 12500 nM
COc1cc(NC(=O)Nc2ccccn2)cc(-c2c[nH]cn2)c1OC | 33.2 nM | 56.5 nM | 14100 nM | 24.8 nM | 21200 nM
O=C(Nc1ccccn1)Nc1cc(-c2cncnc2)ccc1OC(F)(F)F | 52.2 nM | 81.3 nM | 15200 nM | 26.6 nM | 21600 nM
COc1cc(NC(=O)Nc2ccncc2)cc(-c2cncnc2)c1OC | 492 nM | > 500 nM | 17300 nM | 290 nM | 12900 nM
O=C(Nc1nccs1)Nc1cc(-c2cncnc2)ccc1OC(F)(F)F | 68.6 nM | 154 nM | 17600 nM | 71.7 nM | 9350 nM
COc1ccc(-c2cc(NC(=O)Nc3ccccn3)cc(OC)c2OC)cn1 | 79.4 nM | > 500 nM | 24700 nM | 66.6 nM | 32900 nM
COc1cc(NC(=O)Nc2ccccn2)cc(-c2cccnc2)c1OC | > 500 nM | 69.3 nM | 13500 nM | 48.8 nM | 22400 nM
